pIC50: −log10 of the molar value.
Key:
HLA-DRβ1-Arg74 = target: T1, HLA-DRβ1-Arg74 (Homo sapiens, UniProt P01903+P01911, A100K/A102G/A103R/A169T/F55Y/I96L/K41T/L162R/M171V/P40S/Q125H/Q178H/Q39Y/R42S/S66N/T106N/W38E/Y61H); assay: In Vitro Arg74 Blocking Test (DELFIA immunoassay, APO peptide binding); settings: 10 μM biotinylated APO; 48 h at 37° C.; serial dilution 0.2 to 0.0125 mM; read-out: approximate IC50, inhibition of APO binding to HLA-DRβ1-Arg74
T1 construct: extracellular portion of the DRB1*0301 β chain fused to the coiled coil region; coiled coil region of the basic leucine zipper domain of JunB; TEV protease cutting site (internal)
T1 sequence (P01903 26-216 limits assumed, other chains not shown): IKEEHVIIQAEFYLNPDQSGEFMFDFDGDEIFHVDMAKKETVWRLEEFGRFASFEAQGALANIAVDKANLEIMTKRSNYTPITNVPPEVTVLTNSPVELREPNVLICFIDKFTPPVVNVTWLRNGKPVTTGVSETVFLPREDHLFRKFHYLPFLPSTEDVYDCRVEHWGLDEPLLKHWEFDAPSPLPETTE
Excerpt: HLA-DRβ1-Arg74 protein (containing arginine at position 74 on the β chain) was produced using the baculovirus system. We designed 2 constructs for both the α and β chains of HLA-DR. The β-chain construct contained the extracellular portion of the DRB1*0301 β chain fused to the coiled coil region of the basic Leucine zipper domain of JunB, and the α chain construct contained the extracellular portion of the DR α chain fused to the coiled coil region to the basic Leucine zipper domain of Fos. A TEV protease cutting site was introduced in each chain to allow removal of the dimerization motif. The JunB and Fos dimerization motifs allowed the protein to dimerize and form the final HLA-DRβ1-Arg74 protein. […]
Test compounds were dissolved in 100% DMSO and tested for their ability to bind to the HLA-DRβ1-Arg74 pocket and block it from binding the peptide using an immunoassay we developed for this purpose, which will be referred to as the “In Vitro Arg74 Blocking Test”. […] Time-resolved fluorescence was measured using the BMG reader (BMG Labtech, Cary, N.C.). […] Percent inhibition was calculated by the following formula: 100−100×[HLA-DRβ1-Arg74-APO-small molecule/HLA-DRβ1-Arg74-APO (no small molecule)])
To gauge the potency of the small molecules we determined the percent inhibition at decreasing concentrations of test molecules. […]

[1] = tested on: T-cells of hTg immunized mice; assay: CFSE T-cell proliferation of splenocytes from hTg immunized NOD-DR3 mice, compound added ex vivo; assay type: cell-based, mouse; settings: final concentration 0.001 mM
Procedure: Female NOD-DR3 mice, 4-6 weeks old, were injected subcutaneously with human thyroglobulin (hTg) (Cell Sciences, Canton, Mass.) in complete Freund adjuvant (CFA) (Sigma) to induce EAT. Mice were immunized with hTg on day 0 and boosted on day 7; mice were sacrificed on day 21. For some mice, PC61 (anti-CD25) antibody (ATCC) at 7.5 mg/mL was injected i.p. on day (−4) and day 3 to deplete T regulatory (CD25+) cells and augment the autoimmune response to hTg.
Spleen and draining lymph nodes were collected from mice upon sacrifice. The spleens and draining lymph nodes were harvested in complete RPMI (Corning) supplemented with 10% FBS (Sigma-Aldrich,) and 1 mM sodium pyruvate (Sigma-Aldrich). They were cut and pressed in circular motion using a plunger from a 10 mL syringe. The suspension was filtered through a 100 μm cell strainer twice and centrifuged at 200×g for 10 minutes. The supernatant was discarded. […] The pellet was resuspended in RPMI and the cells were counted and plated. […]
The CFSE-labeled cells were plated at 2×10^5 cells per well in 100 μL of medium (RPMI/10% FBS). […] The results were analyzed using Flowjo (Tree Star, Ashland, Oreg.). The stimulation index was calculated by using the following formula: Stimulation index=[% proliferating lymphocytes (hTg, peptide or mitogen-treated)]/[% proliferating lymphocytes (medium-treated)]. […]

With COc1ccc2cc1Oc1ccc(cc1)C[C@H]1c3c(cc4c(c3Oc3cc5c(cc3OC)CCN(C)[C@@H]5C2)OCO4)CCN1C [Compound Ia, cepharanthine] the pIC50 (HLA-DRβ1-Arg74) was roughly 4.10, the “activation of T-cells of hTg immunized mice by Tg.2098” value ([1]; Tg.2098 20 μg/ml, p=0.0079) was “significantly blocked” and the “activation of T-cells of hTg immunized mice by hTg” value ([1]; hTg 40 μg/mL, p=0.0005) was “significantly blocked”.

Reference: patent US11266642B2, “Small molecule inhibitors of HLA-DR3 binding for treating autoimmune thyroiditis” (ICAHN SCHOOL OF MEDICINE AT MOUNT SINAI, priority 2015, dated 2022)
